In ChEMBL document CHEMBL1150878, “Novel cytotoxic diterpenes, excavatolides A-E, isolated from the Formosan gorgonian Briareum excavatum” (1998) one finds EC50 data, which are given here for seven compounds.

Common to all, as to assay type: functional
Common to all, as to conditions: read-out: ED50 (the source's name)

One experiment has as its system A549. Briefly: Cytotoxicity against human A549 cells by MTT assay.
The test system of the next experiment is KB. Briefly: Cytotoxicity against human KB cells by MTT assay.
A further experiment deals with HT-29. The experiment is described as follows: Cytotoxicity against human HT-29 cells by MTT assay.
In a further experiment the test system is P388. Briefly: Cytotoxicity against mouse P388 cells by MTT assay.

In brackets after ≈: the same amount, converted by molar mass.

As for `CC(=O)O[C@H]1C[C@H](OC(C)=O)[C@@]2(C)[C@H]([C@H]1C)[C@]1(O)[C@@]2(OC(C)=O)CC/C(C)=C\[C@@H]2OC(=O)[C@@]3(C)O[C@@]213`, the EC50 is 37.2 µg/mL (≈ 73.4 µM) in the experiment on A549, above 50 µg/mL in the experiment with KB, 4.4 µg/mL (≈ 8.69 µM) in the experiment with HT-29 and 5.8 µg/mL (≈ 11.5 µM) with P388.
As to `C=C1[C@H]2O[C@H]2[C@@]2(O)[C@@]3(C)[C@H]4O[C@H]4[C@H](OC(C)=O)[C@H](C)[C@@H]3[C@@]2(OC(C)=O)[C@]2(O)[C@@H](C)C(=O)O[C@H]2[C@H]1Cl` [BRIANOLIDE], the EC50 with A549, with KB, in the experiment on HT-29 and in the experiment with P388 was above 50 µg/mL in each case.
On to `C=C1[C@@H]2C[C@@]3(OC(C)=O)[C@@]4(C)[C@@H](OC(C)=O)CC=C(C)[C@@H]4[C@@]3(O)[C@]3(O2)[C@@H](C)C(=O)O[C@H]3[C@H]1Cl` [EXCAVATOLIDE A], for which the EC50 in the experiment on A549 was 21.9 µg/mL (≈ 45.5 µM); with KB it was 2.5 µg/mL (≈ 5.2 µM); in the experiment on HT-29, above 50 µg/mL; in the experiment on P388 it was above 50 µg/mL.
As for `CCCC(=O)O[C@H]1C/C(C)=C\[C@@H]2OC(=O)[C@@]3(C)O[C@]23[C@]2(OC(C)=O)[C@H]3[C@@H](C)[C@@H](O)C[C@H](OC(C)=O)[C@]3(C)[C@]12OC(C)=O` [EXCAVATOLIDE B], the EC50 in the experiment with A549, with KB, in the experiment with HT-29 and with P388 was above 50 µg/mL each time.
For the compound `CC(=O)O[C@H]1C[C@H](O)[C@H](C)[C@H]2[C@@]1(C)[C@]1(OC(C)=O)[C@@H](OC(C)=O)C/C(C)=C\[C@@H]3OC(=O)[C@@]4(C)O[C@]34[C@]21OC(C)=O` [EXCAVATOLIDE C], the EC50 with A549 came to 1.9 µg/mL (≈ 3.37 µM); with KB, 1.9 µg/mL (≈ 3.37 µM); with HT-29, 1.9 µg/mL (≈ 3.37 µM); in the experiment with P388, 0.3 µg/mL (≈ 0.531 µM).
`CC(=O)O[C@H]1C[C@H](O)[C@H](C)[C@H]2[C@@]1(C)[C@]1(O)[C@@H](OC(C)=O)C/C(C)=C\[C@@H]3OC(=O)[C@@]4(C)O[C@]34[C@]21OC(C)=O` [EXCAVATOLIDE D]: the EC50 was above 50 µg/mL with A549, 4.2 µg/mL (≈ 8.04 µM) in the experiment on KB, 1.3 µg/mL (≈ 2.49 µM) in the experiment on HT-29 and 1.8 µg/mL (≈ 3.44 µM) in the experiment on P388.
Regarding `CC(=O)O[C@H]1C[C@H](O)[C@H](C)[C@H]2[C@@]1(C)[C@]1(OC(C)=O)CC/C(C)=C\[C@@H]3OC(=O)[C@@]4(C)O[C@]34[C@]21O` [EXCAVATOLIDE E], the EC50 in the experiment on A549 was 1.2 µg/mL (≈ 2.58 µM); in the experiment with KB it was 0.8 µg/mL (≈ 1.72 µM); in the experiment on HT-29, 1.6 µg/mL (≈ 3.44 µM); with P388, 1.6 µg/mL (≈ 3.44 µM).
